What was measured:
[1] = triterpenic acid content of basic aqueous solution with cyclodextrins (Example 4); assay type: physicochemical; details: water with trisodium phosphate (10 mM) and 2 mg/mL cyclodextrins, 120° C. and >2 bar
Description: The triterpenoid-rich powder described in Example 1 was extracted with water in the presence of trisodium phosphate (10 mM) and 2 mg/mL cyclodextrins at 120° C. and >2 bar.
The basic triterpenic acid-rich solution contained more than 100 μg/mL oleanolic acid and more than 8 μg/mL betulinic acid. The basic solution thus prepared was then adjusted to pH 7.4 using an aqueous phosphoric acid solution. The extent of dilution and the solvent quantities were selected in such away that the salt concentration of the neutralized triterpenic acid-rich solution was between 5 and 140 mM.

[2] = triterpenic acid content of basic aqueous solution (trisodium phosphate extraction, Example 1); assay type: physicochemical; details: water with trisodium phosphate, extracted at 120° C. and >2 bar, cooled to room temperature, filtered through 0.22 μm filter
Description: Dried annual shoots of mistletoe were extracted with n-heptane at 120° C. and >2 bar pressure. The precipitate obtained upon cooling of the extraction agent was composed of more than 60% oleanolic acid and more than 3% betulinic acid. The triterpenic acid-rich powder thus obtained was extracted with water in the presence of trisodium phosphate at 120° C. and >2 bar pressure to produce a supersaturated basic solution.
The basic triterpenoid-rich solution, cooled to room temperature and filtered through a 0.22 μm filter, contained more than 80 μg/mL oleanolic acid and more than 8 μg/mL betulinic acid. The basic solution thus prepared was then adjusted to pH 7.4 using an aqueous phosphoric acid solution, in the presence of 1.6 μg/mL polysaccharides which had been obtained from mistletoe berries. The extent of dilution and the solvent quantities were selected in such a way that the salt concentration of the neutralized triterpenic acid-rich solution was between 5 and 140 mM.

SMILES: CC1(C)CC[C@]2(C(=O)O)CC[C@]3(C)C(=CC[C@@H]4[C@@]5(C)CC[C@H](O)C(C)(C)[C@@H]5CC[C@]43C)[C@@H]2C1 [oleanolic acid]
- content in basic triterpenic acid-rich solution [1]: more than 100 μg/mL
- content in basic triterpenoid-rich solution [2]: more than 80 μg/mL
